{"source": "patent US10316100B2", "about": "“Treating basal-like genotype cancers” (The UAB Research Foundation, priority 2009, dated 2019)", "key": {"cIAP2": {"biological_target": "cIAP2 (Homo sapiens, UniProt Q13489)", "sequence (Q13489 whole entry)": "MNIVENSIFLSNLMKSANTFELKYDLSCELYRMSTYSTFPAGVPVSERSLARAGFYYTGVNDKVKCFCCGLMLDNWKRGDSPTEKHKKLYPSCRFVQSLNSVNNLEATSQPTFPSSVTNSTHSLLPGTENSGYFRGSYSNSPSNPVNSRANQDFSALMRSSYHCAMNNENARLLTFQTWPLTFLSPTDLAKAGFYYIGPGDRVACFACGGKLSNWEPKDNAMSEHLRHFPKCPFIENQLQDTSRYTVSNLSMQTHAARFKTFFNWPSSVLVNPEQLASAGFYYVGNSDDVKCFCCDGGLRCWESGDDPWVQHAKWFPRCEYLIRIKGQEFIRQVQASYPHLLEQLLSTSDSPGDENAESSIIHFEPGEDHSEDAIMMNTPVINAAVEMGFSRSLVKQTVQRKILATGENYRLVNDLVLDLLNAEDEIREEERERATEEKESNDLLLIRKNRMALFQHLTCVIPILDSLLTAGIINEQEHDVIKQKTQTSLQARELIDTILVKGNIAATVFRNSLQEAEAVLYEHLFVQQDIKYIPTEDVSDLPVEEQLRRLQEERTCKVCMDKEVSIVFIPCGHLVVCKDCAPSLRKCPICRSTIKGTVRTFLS", "conditions": "cited from earlier work"}, "[1]": {"system": "human pancreatic cancer cells, S013 and S2VP10", "assay": "Effect of AT-406 on TRA-8-induced apoptosis of pancreatic cancer cells", "type": "cell-based", "conditions": "10 μM AT-406 alone", "text": "To determine whether AT-406 is able to overcome DR5-apoptosis resistance of pancreatic cancer cells, the effect of AT-406 on TRA-8-induced apoptosis was examined for two lines of human pancreatic cancer cells, S013 and S2VP10, both of which are highly resistant to TRA-8-mediated apoptosis. […] To determine the effect of AT-406 on the DR5/DDX3/cIAP1 protein complex, the amount of cIAP1 was examined by DR5-coIP. […] This was not due to the reduction of DR5-associated DDX3 as DDX3 was equally co-immunoprecipitated with DR5."}, "[2]": {"system": "IAP proteins associated with DDX3", "assay": "IAP proteins in the DDX3 complex, breast cancer cell lines (DDX3 immunoprecipitation, 3H4 blot)", "type": "cell-based, human", "conditions": "panel of breast cancer cell lines; 1000 ng/ml TRA-8, 10 uM AT-406, overnight", "method": "FIGS. 10A, 10B, and 10C show the in vitro effect of AT-406 on IAPs in breast cancer cell lines. Human breast cancer cell lines (MB436 and 2LMP (FIG. 10A), SUM159 and SUM149 (FIG. 10B), BT474 and MB468 (FIG. 10C) were treated with control medium (lane 1) or 1000 ng/ml TRA-8 (lane 2), or 10 uM AT-406 (lane 3) or both (lane 4) overnight. Cell lysates from treated cells were immunoprecipitated with an anti-DDX3 antibody (clone 3E4). The precipitated proteins were western blotted and the IAP proteins were detected by 3H4 antibody.\nEffect of AT-406 on expression of IAP proteins in the DDX3 complex was analyzed in a panel of breast cancer cell lines including triple negative and non-triple negative lines. As previously shown, four triple negative breast cancer lines, […], 2LMP (FIG. 10A), SUM 159, and SUM 149 (FIG. 10B) expressed lower levels of cIAP1 or cIAP2 protein when co-immunoprecipitated with DDX3, compared to two non-triple negative lines, BT474 and MB468 (FIG. 10C), which were resistant to TRA-8-mediated apoptosis."}, "XIAP": {"biological_target": "XIAP (Homo sapiens, UniProt P98170)", "sequence (P98170 whole entry)": "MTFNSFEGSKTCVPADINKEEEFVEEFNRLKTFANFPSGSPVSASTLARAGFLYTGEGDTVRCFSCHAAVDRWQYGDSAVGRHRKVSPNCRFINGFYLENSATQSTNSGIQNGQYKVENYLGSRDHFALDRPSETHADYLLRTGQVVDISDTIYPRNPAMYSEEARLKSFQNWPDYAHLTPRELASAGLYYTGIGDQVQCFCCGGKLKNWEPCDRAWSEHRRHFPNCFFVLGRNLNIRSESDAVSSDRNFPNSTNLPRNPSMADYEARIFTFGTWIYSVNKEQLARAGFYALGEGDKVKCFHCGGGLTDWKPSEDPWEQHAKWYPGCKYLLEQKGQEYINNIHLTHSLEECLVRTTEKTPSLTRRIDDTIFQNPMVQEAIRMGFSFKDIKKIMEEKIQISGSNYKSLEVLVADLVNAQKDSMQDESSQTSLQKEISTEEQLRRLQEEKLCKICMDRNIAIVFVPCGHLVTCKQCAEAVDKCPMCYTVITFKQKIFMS", "conditions": "cited from earlier work"}, "TRAIL-mediated apoptosis": {"system": "TRAIL-mediated apoptosis", "conditions": "cited from earlier work"}, "IAP proteins": {"system": "IAP proteins", "assay": "Western blot of IAP proteins in total cell lysates with 3H4 antibody, pancreatic cancer cells", "type": "cell-based, human", "conditions": "S2013 and S2VP10; 1000 ng/ml TRA-8, 10 uM AT-406, overnight"}, "cIAP1": {"biological_target": "cIAP1 (Homo sapiens, UniProt Q13490)", "sequence (Q13490 whole entry)": "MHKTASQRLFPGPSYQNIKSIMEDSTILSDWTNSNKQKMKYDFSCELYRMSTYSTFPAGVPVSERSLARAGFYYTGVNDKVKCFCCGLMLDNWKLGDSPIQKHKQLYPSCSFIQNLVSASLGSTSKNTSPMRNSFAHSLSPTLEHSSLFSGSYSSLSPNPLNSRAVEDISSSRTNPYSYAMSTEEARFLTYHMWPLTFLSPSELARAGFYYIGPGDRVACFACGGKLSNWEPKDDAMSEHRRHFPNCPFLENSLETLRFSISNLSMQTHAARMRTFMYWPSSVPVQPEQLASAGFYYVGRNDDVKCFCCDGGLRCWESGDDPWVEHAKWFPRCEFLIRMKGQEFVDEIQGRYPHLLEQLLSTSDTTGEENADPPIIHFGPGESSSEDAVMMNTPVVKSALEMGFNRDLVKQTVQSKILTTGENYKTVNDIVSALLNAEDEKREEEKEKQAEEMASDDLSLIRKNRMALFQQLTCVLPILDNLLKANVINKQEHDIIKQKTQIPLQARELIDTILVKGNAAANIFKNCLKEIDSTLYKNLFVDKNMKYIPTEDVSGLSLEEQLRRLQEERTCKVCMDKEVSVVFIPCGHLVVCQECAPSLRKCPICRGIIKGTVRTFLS", "conditions": "cited from earlier work"}, "[3]": {"biological_target": "T1, DR5/DDX3/cIAP1 protein complex (Homo sapiens, UniProt Q13490)", "T1 construct": "endogenous in cells; host or cells: S2013 (printed S013) and S2VP10 human pancreatic cancer cells", "T1 sequence (Q13490 whole entry, one chain of several)": "as the sequence (Q13490 whole entry) above", "assay": "cIAP1 in the DR5 complex by DR5-coIP, pancreatic cancer cells", "type": "cell-based", "conditions": "10 uM AT-406, 1000 ng/ml TRA-8, overnight"}, "[4]": {"system": "2LMP orthotopic basal B xenografts", "assay": "In vivo efficacy against 2LMP orthotopic xenografts", "parameters": "species or system athymic nude mice", "conditions": "2LMP xenografts; untreated 8.6 days", "method": "(§1) The arrows indicate the interval during which antibody was administered (n=9-10 mice/group).\n(§2) Treatments were initiated once tumors were well-established, with tumor diameters of about 6 mm, and tumor size was monitored over time."}, "[5]": {"system": "SUM159 orthotopic basal B xenografts", "assay": "In vivo efficacy against SUM159 orthotopic xenografts", "parameters": "species or system athymic nude mice", "conditions": "untreated 17.9 days", "method": "as §1, §2"}, "[6]": {"system": "triple negative breast cell (TNBC) cell lines (basal)", "assay": "TRA-8 cytotoxicity against the panel of TNBC cell lines", "type": "cell-based, human", "conditions": "cell lines of basal B subtype (FIG. 1)"}, "DDX3": {"system": "DDX3", "assay": "siRNA mediated knockdown of DDX3, Western blot in TRA-8-resistant MDA231 cells", "type": "cell-based, human", "conditions": "among five RNAi constructs", "text": "Design RNAi: an online design tool, BLOCK-iT RNAi Designer (Invitrogen; Carlsbad, Calif.), was used to identify RNAi targets for DDX3. Five targeted siRNA sequences were selected from the top 10 highest scoring RNAi targets (see Table 1).\nThey were then cloned into the BLOCK-iT U6 entry vector. The siRNA is driven by the U6 promoter and can be transiently expressed in most dividing or nondividing mammalian cell types. Resistant cells were transfected with RNAi used LIPOFECTAMINE 2000 (Invitrogen; Carlsbad, Calif.) for the RNAi response. The decreased DDX3 expression was determined by Western blot analysis using anti-DDX3 antibody 36 hours after transfection. […]\nTo study the role of DDX3 in DR5 signaling, the importance of endogenous DDX3 in TRA-8-induced apoptosis was examined. […] TRA-8-resistant MDA231 cells were transfected with five RNAi constructs, and protein expression levels of DDX3 were determined by Western blot analysis using monoclonal anti-DDX3 antibody 48 hours post-transfection. […] To further determine the causal role of DDX3 in DR5-mediated apoptosis, DDX3 expression was reduced in a panel of tumor cells and their susceptibility to TRA-8-induced apoptosis analyzed. […]"}}, "data": [{"molecule": "CN[C@@H](C)C(=O)N[C@H]1CN(C(=O)CC(C)C)CC[C@H]2CC[C@@H](C(=O)NC(c3ccccc3)c3ccccc3)N2C1=O", "note": "[AT-406]", "values": [{"measurement": "affinity", "setting": "cIAP2", "result": "low nanomolar affinity"}, {"measurement": "cell death", "setting": "[1]", "result": "did not induce significant cell death"}, {"measurement": "levels of the IAP proteins associated with DDX3", "setting": "[2]", "result": "significantly reduced"}, {"measurement": "affinity", "setting": "XIAP", "result": "low nanomolar affinity"}, {"measurement": "effect on TRAIL-mediated apoptosis", "setting": "TRAIL-mediated apoptosis", "result": "synergistically enhances"}, {"measurement": "total IAP protein expression", "setting": "IAP proteins", "result": "did not alter"}, {"measurement": "affinity", "setting": "cIAP1", "result": "low nanomolar affinity"}, {"measurement": "amount of cIAP1 in the DR5 complex", "setting": "[3]", "result": "dramatic reduction"}]}, {"molecule": "COc1cccc2c1C(=O)c1c(O)c3c(c(O)c1C2=O)C[C@@](O)(C(=O)CO)C[C@@H]3O[C@H]1C[C@H](N)[C@H](O)[C@H](C)O1", "note": "[Adriamycin]", "values": [{"measurement": "tumor doubling time", "setting": "[4]", "result": 51.1, "unit": "days"}, {"measurement": "mean tumor doubling time", "setting": "[5]", "result": 41.9, "unit": "days"}]}, {"molecule": "TRAIL: Recombinant soluble TRAIL purchased from Alexis Biochemicals", "values": [{"measurement": "cytotoxicity compared with TRA-8", "setting": "[6]", "result": "Equivalent cytotoxicity"}]}, {"molecule": "construct #2: DDX3 RNAi construct 562-582, SEQ ID NO: 6 and 7 (nucleic acid, expressed or natural sequence) chain 1: CACCGGAGAAATTATCATGGGAAACCGAAGTTTCCCATGATAATTTCTCC chain 2: AAAAGGAGAAATTATCATGGGAAACTTCGGTTTCCCATGATAATTTCTCC", "values": [{"measurement": "rank as inhibitor of DDX3 expression", "setting": "DDX3", "result": "most effective"}]}]}
